Results taken from PubChem BioAssay (NCI).
“And” between values parts separate entries of the source, which are not always exact repeats. Equal values may be shown once.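 Following 48 hours of exposure in 96-well plates, responses at five concentrations were used to interpolate endpoints linearly. The concentration for 50% growth inhibition is given as GI50. TGI denotes the concentration required for complete inhibition of growth.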

Assays:
Experiment in all cases: NCI-60 cell line screen, 48 h
OVCAR-8 ovarian = test system: OVCAR-8 ovarian
COLO 205 colon = test system: COLO 205 colon
MCF7 breast = test system: MCF7 breast
MOLT-4 leukemia = test system: MOLT-4 leukemia
BT-549 breast = test system: BT-549 breast
NCI-H460 lung = test system: NCI-H460 lung
NCI-H23 lung = test system: NCI-H23 lung
HOP-92 NSCLC = test system: HOP-92 NSCLC
OVCAR-3 ovarian = test system: OVCAR-3 ovarian

Row | SMILES | TGI (OVCAR-8 ovarian) | TGI (COLO 205 colon) | TGI (MCF7 breast) | TGI (MOLT-4 leukemia) | TGI (BT-549 breast) | TGI (NCI-H460 lung) | TGI (NCI-H23 lung) | GI50 (OVCAR-8 ovarian) | GI50 (COLO 205 colon) | GI50 (MCF7 breast) | GI50 (HOP-92 NSCLC) | TGI (HOP-92 NSCLC) | GI50 (MOLT-4 leukemia) | GI50 (BT-549 breast) | GI50 (OVCAR-3 ovarian) | TGI (OVCAR-3 ovarian) | GI50 (NCI-H23 lung)
1 | CC1=C2CC(C)(C)CC(=O)C2(C)CCC1=O (stereo not given) | > 100 µM | > 100 µM | > 100 µM | > 100 µM | > 100 µM | > 100 µM | > 100 µM | – | – | – | – | – | – | – | – | – | –
2 | CCOc1cc(/C=C/C(=O)CC(=O)/C=C/c2ccc(OC(=O)CNCCN(CC)CC)c(OCC)c2)ccc1OC(=O)CNCCN(CC)CC | 12.2 µM | 4.58 µM | 10.5 µM | 2.72 µM | 3.52 µM | – | – | 1.03 µM | 1.88 µM | 0.782 µM | 1.74 µM | 6.2 µM | 0.531 µM | 1.45 µM | 2.24 µM | 6.07 µM | –
3 | CC(=O)Nc1sccc1S(=O)(=O)c1ccc(Cl)cc1 | > 100 µM | > 100 µM | > 100 µM | > 100 µM | > 100 µM | > 100 µM | > 100 µM | – | – | – | – | > 100 µM | – | – | – | > 100 µM | –
4 | Cc1cc(C)c(S(=O)(=O)N(CCCN)OCCCN)c(C)c1 | > 100 µM | > 100 µM | > 100 µM | > 100 µM | > 100 µM | > 100 µM | > 100 µM | – | – | – | – | > 100 µM | – | – | – | > 100 µM | –
5 | C=C(Cl)C(Cl)(CBr)CCC(Br)C(C)(C)Cl (stereo not given) | 5.15 µM and 2.59 µM and 17 µM | 4.02 µM and 7.41 µM and 31.6 µM | 2.83 µM and 2.09 µM and 8.1 µM | 59.8 µM and 33.4 µM and 54.3 µM | 7.21 µM and 15.7 µM and 9.1 µM | 3.66 µM and 2.93 µM and 5.82 µM | 40.7 µM and 33.8 µM and > 70.2 µM | – | – | – | – | 3.5 µM and 2.72 µM and 4.84 µM | – | – | – | 3.09 µM and 1.96 µM and 4.78 µM | –
6 | CCN(CCCl)c1cc(CN(C)C)cc(NC(=O)c2cc(C(=O)Nc3cc(CN(C)C)cc(N(CC)CCCl)c3)n(C)n2)c1 | 1.13 µM | 2.05 µM | 1.38 µM | 0.164 µM | – | 0.4 µM | 3.04 µM | – | – | – | – | 3.38 µM | – | – | – | – | –
7 | O=C([O-])C1([n+]2c(-c3ccccc3)cc(-c3ccccc3)cc2-c2ccccc2)CC1 | > 100 µM | – | > 100 µM | > 100 µM | – | > 100 µM | > 100 µM | – | – | – | – | > 100 µM | – | – | – | > 100 µM | –
8 | CC(=O)O[C@H]1C[C@@H](OC(C)=O)[C@@](C)(O)[C@@H]2[C@@H](OC(C)=O)[C@@]3(O)[C@H](/C=C(/CCl)[C@H]4O[C@H]4[C@@H](OC(C)=O)[C@@]12C)OC(=O)[C@@H]3C | > 25 µM | > 25 µM | – | > 25 µM | > 25 µM | > 25 µM | > 25 µM | – | – | – | – | > 25 µM | – | – | – | > 25 µM | –
9 | CC(=O)OC1CC[C@@]2(C)C(=CC[C@@H]3[C@@H]2CC[C@]2(C)C(OC(C)=O)[C@H](n4ccnc4)C[C@@H]32)C1 (stereo not given in full) | 44.2 µM | 34.4 µM | 33.2 µM | 30.3 µM | – | 33.4 µM | > 100 µM | – | – | – | – | > 100 µM | – | – | – | – | –
10 | COc1ccc2c(C(=O)c3c(C)n(CCN4CCOCC4)c4ccccc34)cccc2c1 | 59.4 µM | 43.4 µM | 55.9 µM | > 100 µM | 98.1 µM | > 100 µM | > 100 µM | – | – | – | – | > 100 µM | – | – | – | 29.6 µM | –
11 | CCCCC1Cc2cc(OC)ccc2-c2n1c1cc(OC)ccc1[n+]2C (stereo not given) (tested in a mixture with another compound) | 49 µM | 1.69 µM | 15.8 µM | > 51.6 µM | 79 µM | 18.1 µM | > 39.9 µM | – | – | – | – | 7.02 µM | – | – | – | > 72.1 µM | –
12 | COc1cccc(-c2[nH]c3cc4c(cc3c(=O)c2C(=O)O)OCO4)c1 | 65.9 µM | 74.9 µM | > 100 µM | > 100 µM | > 100 µM | > 100 µM | > 100 µM | – | – | – | – | > 100 µM | – | – | – | > 100 µM | –
13 | Cc1cc(C)nc(NC(=S)Nc2ccc(Cl)cc2)c1 | 71.5 µM | > 100 µM | > 100 µM | > 100 µM | > 100 µM | > 100 µM | – | – | – | – | – | – | – | – | – | > 100 µM | –
14 | N=C(N)c1ccc(N=Nc2c(O)ccc3cc(O)ccc23)cc1 | > 100 µM | > 100 µM | > 100 µM | > 100 µM | > 100 µM | > 100 µM | – | – | – | – | – | > 100 µM | – | – | – | > 100 µM | –
15 | COC(=O)c1ccccc1/C=C1\Cc2ccc3ccccc3c2C1C (stereo not given) | > 100 µM | > 100 µM | > 100 µM | > 100 µM | > 100 µM | > 100 µM | – | – | – | – | – | > 100 µM | – | – | – | > 100 µM | –
16 | CC(=O)Oc1ccc2cc(Oc3ccccc3)c(=O)oc2c1 | > 100 µM | – | > 100 µM | – | > 100 µM | > 100 µM | > 100 µM | – | – | – | – | > 100 µM | – | – | – | > 100 µM | –
17 | O=C1NC2=NN=C(c3ccc(Br)cc3)CN2NC12c1ccccc1-c1ccccc12 | > 100 µM | > 100 µM | > 100 µM | – | > 100 µM | > 100 µM | > 100 µM | – | – | – | – | > 100 µM | – | – | – | > 100 µM | –
18 | CCCCCC(/C=C/[C@@H]1[C@@H](C(O)CCCCCC(=O)OC)C(=O)C[C@H]1O[Si](C)(C)C(C)(C)C)OCOCCOC (stereo not given in full) | 42.8 µM | 49.6 µM | > 47 µM | 4.87 µM | 24.8 µM | > 100 µM | 32.3 µM | – | – | – | – | 46.2 µM | – | – | – | 28.1 µM | –
19 | CC(=O)O[C@H]1C[C@H]2[C@@H]([C@H](OC(C)=O)C[C@@H]3CC4(CC[C@@]32C)OOC2(CCCCC2)OO4)[C@@H]2CC[C@H]([C@H](C)CCC(=O)O)[C@@]12C | 16.1 µM | 14 µM | 22.1 µM | 51.6 µM | 17.3 µM | 21.6 µM | 16.6 µM | – | – | – | – | 7.1 µM | – | – | – | 37.2 µM | –
20 | c1csc(C(NC2=NCCO2)C2CC2)c1 (stereo not given) | > 100 µM | > 100 µM | > 100 µM | > 100 µM | – | > 100 µM | > 100 µM | – | – | – | – | > 100 µM | – | – | – | – | –
21 | N#C[C@H](C(=O)c1ccccc1F)c1nc2ccccc2[nH]1 | > 100 µM | > 100 µM | > 100 µM | > 100 µM | > 100 µM | > 100 µM | > 100 µM | – | – | – | – | > 100 µM | – | – | – | > 100 µM | –
22 | CCN(CC)C(=S)SSCCO | 38.7 µM | – | – | 21.7 µM | 31.9 µM | – | 31.5 µM | 19.3 µM | – | – | 14.6 µM | 27.7 µM | 4.7 µM | 16 µM | – | – | 16.4 µM
23 | CN(CCCNC(=O)c1c2ccc3ccccc3c2nn1C)CCCNC(=O)c1c2ccc3ccccc3c2nn1C | 27.2 µM | 3.54 µM | 15.6 µM | 24 µM | 24 µM | 18.4 µM | 29.4 µM | – | – | – | – | 12.7 µM | – | – | – | 37.3 µM | –
